Reference: ChEMBL document CHEMBL3627684, “Discovery of spirocyclic-diamine inhibitors of mammalian acetyl CoA-carboxylase” (Bioorg Med Chem Lett, 2015)

How the values were obtained:
[1] = Inhibition of acetyl-CoA carboxylase in rat cryopreserved hepatocytes assessed as suppression of de novo lipogenesis; assay type: cell-based; conditions: hepatocyte
Acetyl-CoA carboxylase 1 = Acetyl-CoA carboxylase 1 (Rattus norvegicus, UniProt P11497); test: Inhibition of rat liver ACC1 preincubated for 10 mins followed by acetyl-CoA/KHCO3/[14C]-NaHCO3/ATP addition measured after 20 mins by liquid scintillation counting analysis
Acetyl-CoA carboxylase 2 = Acetyl-CoA carboxylase 2 (Homo sapiens, UniProt O00763); test: Inhibition of recombinant human ACC2 expressed in CHO cells by fluorescence polarization assay
Acetyl-CoA carboxylase 2, sequence (O00763 whole entry): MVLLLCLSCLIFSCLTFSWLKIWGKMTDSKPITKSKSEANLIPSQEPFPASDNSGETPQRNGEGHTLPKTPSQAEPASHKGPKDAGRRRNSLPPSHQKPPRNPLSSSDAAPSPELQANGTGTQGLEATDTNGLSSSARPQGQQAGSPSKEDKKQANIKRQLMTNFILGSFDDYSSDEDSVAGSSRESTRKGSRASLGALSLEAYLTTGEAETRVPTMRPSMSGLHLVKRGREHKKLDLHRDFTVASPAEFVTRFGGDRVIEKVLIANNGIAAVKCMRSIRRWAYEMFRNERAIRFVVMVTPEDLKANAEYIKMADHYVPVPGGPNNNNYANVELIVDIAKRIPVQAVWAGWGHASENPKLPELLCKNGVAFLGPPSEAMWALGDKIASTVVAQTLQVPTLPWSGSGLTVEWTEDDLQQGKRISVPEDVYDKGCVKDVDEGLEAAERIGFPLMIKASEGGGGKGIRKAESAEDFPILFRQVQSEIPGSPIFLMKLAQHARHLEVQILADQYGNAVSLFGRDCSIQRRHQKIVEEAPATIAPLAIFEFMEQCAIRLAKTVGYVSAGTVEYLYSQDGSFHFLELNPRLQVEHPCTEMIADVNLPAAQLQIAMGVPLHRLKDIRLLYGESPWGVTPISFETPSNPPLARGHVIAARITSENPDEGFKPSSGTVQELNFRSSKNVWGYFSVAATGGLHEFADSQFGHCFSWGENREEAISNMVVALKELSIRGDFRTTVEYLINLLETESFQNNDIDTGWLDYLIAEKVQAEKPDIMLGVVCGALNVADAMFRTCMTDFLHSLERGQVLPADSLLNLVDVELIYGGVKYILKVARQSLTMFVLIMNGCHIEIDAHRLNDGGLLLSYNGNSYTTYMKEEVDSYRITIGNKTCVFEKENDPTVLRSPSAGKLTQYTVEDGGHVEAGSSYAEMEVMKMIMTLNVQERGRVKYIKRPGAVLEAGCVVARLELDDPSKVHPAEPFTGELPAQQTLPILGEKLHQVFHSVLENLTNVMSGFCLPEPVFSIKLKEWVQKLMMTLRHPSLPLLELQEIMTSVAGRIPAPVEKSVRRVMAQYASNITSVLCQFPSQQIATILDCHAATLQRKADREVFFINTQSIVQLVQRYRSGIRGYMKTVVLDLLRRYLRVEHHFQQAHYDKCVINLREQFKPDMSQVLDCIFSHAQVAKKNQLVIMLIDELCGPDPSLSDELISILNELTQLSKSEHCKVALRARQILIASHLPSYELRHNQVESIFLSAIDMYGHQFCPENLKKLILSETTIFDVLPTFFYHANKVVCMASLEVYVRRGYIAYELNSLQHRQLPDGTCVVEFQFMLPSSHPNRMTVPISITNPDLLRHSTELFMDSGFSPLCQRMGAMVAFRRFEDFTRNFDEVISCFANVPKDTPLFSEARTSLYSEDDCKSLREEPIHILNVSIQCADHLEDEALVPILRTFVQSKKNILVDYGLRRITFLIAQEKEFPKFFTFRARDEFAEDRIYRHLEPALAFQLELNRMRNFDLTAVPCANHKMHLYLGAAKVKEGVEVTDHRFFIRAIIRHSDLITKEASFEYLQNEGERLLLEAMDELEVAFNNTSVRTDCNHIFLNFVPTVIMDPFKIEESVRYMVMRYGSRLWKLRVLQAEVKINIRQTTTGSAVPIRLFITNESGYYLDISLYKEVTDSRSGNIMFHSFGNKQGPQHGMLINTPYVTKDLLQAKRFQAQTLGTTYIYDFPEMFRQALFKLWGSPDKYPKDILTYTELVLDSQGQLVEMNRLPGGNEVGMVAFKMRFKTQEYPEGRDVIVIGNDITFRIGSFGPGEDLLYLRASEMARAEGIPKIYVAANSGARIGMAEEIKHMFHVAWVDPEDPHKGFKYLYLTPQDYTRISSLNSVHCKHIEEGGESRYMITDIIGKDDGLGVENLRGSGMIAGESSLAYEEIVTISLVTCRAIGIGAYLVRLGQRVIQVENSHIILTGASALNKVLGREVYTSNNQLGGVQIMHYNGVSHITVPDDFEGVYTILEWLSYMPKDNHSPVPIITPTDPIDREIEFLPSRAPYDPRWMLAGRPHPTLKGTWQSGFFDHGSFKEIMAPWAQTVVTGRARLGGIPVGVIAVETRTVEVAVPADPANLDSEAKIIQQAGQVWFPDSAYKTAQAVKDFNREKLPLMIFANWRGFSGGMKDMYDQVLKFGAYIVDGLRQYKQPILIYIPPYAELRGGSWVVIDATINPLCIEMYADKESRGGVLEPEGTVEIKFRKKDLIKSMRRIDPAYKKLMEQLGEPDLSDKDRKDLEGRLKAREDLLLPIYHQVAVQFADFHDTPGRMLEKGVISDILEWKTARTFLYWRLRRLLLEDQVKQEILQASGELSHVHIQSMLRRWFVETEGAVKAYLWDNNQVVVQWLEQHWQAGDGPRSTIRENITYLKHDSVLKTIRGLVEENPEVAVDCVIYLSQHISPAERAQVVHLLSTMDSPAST

[2] = Intrinsic clearance in human liver microsomes
[3] = Plasma clearance in rat; assay type: ADME, organism-based

IC50 [1] [nM] | IC50 (Acetyl-CoA carboxylase 1) [nM] | IC50 (Acetyl-CoA carboxylase 2) [nM] | CLint scaled [2] [mL/min/kg] | clearance [3] [mL/min/kg] | Structure (SMILES)
93 | – | – | – | – | CC(C)(C)n1cc2c(n1)C(=O)CC1(CCN(C(=O)c3ccc4[nH]ncc4c3)CC1)O2
– | 1000 | 2200 | 94 | – | Cc1cc(C(=O)N2CCC3(CCN(C(=O)OC(C)(C)C)CC3)C2)cc2cn[nH]c12
– | 510 | 1000 | 32 | – | Cc1cc(C(=O)N2CCC3(CCN(C(=O)OC(C)(C)C)C3)CC2)cc2cn[nH]c12
– | 810 | 2400 | 19 | – | Cc1cc(C(=O)N2CC3(CCN(C(=O)OC(C)(C)C)CC3)C2)cc2cn[nH]c12
– | 450 | 800 | < 9 | – | Cc1cc(C(=O)N2CCC3(CC2)CN(C(=O)OC(C)(C)C)C3)cc2cn[nH]c12
– | 11000 | 20000 | – | – | Cc1cc(C(=O)N2CCC3(CCN(C(=O)OC(C)(C)C)C3)C2)cc2cn[nH]c12 (stereo not drawn)
– | > 30000 | > 10000 | – | – | Cc1cc(C(=O)N2CC3(CN(C(=O)OC(C)(C)C)C3)C2)cc2cn[nH]c12
– | 310 | 1400 | – | – | Cc1cc(C(=O)N2CCC3(CC2)CN(C(=O)OCC(C)(C)C)C3)cc2cn[nH]c12
– | 310 | 880 | 64 | – | Cc1cc(C(=O)N2CCC3(CC2)CN(C(=O)O[C@H](C)c2ccccc2)C3)cc2cn[nH]c12
– | 1600 | 4500 | – | – | Cc1cc(C(=O)N2CCC3(CCN(C(=O)OC(C)C)C3)CC2)cc2cn[nH]c12
– | 220 | 800 | 117 | – | Cc1cc(C(=O)N2CCC3(CCN(C(=O)OCC(C)(C)C)C3)CC2)cc2cn[nH]c12
– | 2100 | 4000 | – | – | Cc1cc(C(=O)N2CCC3(CCN(C(=O)OCc4ccccc4)C3)CC2)cc2cn[nH]c12
– | 65 | 260 | 117 | – | Cc1cc(C(=O)N2CCC3(CCN(C(=O)O[C@H](C)c4ccccc4)C3)CC2)cc2cn[nH]c12
– | 4800 | 9200 | 46 | – | Cc1cc(C(=O)N2CCC3(CC2C)CN(C(=O)OC(C)(C)C)C3)cc2cn[nH]c12 (stereo not drawn)
– | 240 | 900 | 60 | – | Cc1cc(C(=O)N2CCC3(CC2)CN(C(=O)OC(C)(C)C)C3C)cc2cn[nH]c12 (stereo not drawn)
– | 2200 | 5500 | – | – | Cc1cc(C(=O)N2CCC3(CC2C)C[C@H](C)N(C(=O)OCC(C)(C)C)C3)cc2cn[nH]c12 (stereo partly drawn)
– | 140 | 1100 | – | – | Cc1cc(C(=O)N2CCC3(CC2C)C[C@@H](C)N(C(=O)OCC(C)(C)C)C3)cc2cn[nH]c12 (stereo partly drawn)
300 | 16 | 110 | 106 | 52 | Cc1cc(C(=O)N2CCC3(CC2)CCN(C(=O)OCC(C)(C)C)[C@H]3C)cc2cn[nH]c12
– | 26 | 200 | – | – | Cc1cc(C(=O)N2CCC3(CC2)CCN(C(=O)OCC(C)(C)C)[C@@H]3C)cc2cn[nH]c12
– | 7900 | > 14000 | – | – | Cc1cc(C(=O)N2CCC3(CCN(C(=O)OC(C)(C)C)C3)CC2C)cc2cn[nH]c12 (stereo in doubt; 3.3.1)
– | 9300 | > 17000 | – | – | Cc1cc(C(=O)N2CCC3(CCN(C(=O)OC(C)(C)C)C3)CC2C)cc2cn[nH]c12 (stereo in doubt; 3.3.2)
